Our source for the IC50 values is patent US10239843B2 (CANCER RESEARCH TECHNOLOGY LIMITED, priority 2014, dated 2019).

Read-outs that look alike come from different tables or passages of the source.

The target in one assay is Human Full Length PARG (Homo sapiens (Human), UniProt Q86W56). As to the kind of experiment: PARG enzyme assay (TR-FRET). Format: biochemical. Particulars: read-out: PARG Biochem IC50. (In TR-FRET formats the signal depends on donor and acceptor labels being close together.)
Human Full Length PARG, sequence (Q86W56 whole entry): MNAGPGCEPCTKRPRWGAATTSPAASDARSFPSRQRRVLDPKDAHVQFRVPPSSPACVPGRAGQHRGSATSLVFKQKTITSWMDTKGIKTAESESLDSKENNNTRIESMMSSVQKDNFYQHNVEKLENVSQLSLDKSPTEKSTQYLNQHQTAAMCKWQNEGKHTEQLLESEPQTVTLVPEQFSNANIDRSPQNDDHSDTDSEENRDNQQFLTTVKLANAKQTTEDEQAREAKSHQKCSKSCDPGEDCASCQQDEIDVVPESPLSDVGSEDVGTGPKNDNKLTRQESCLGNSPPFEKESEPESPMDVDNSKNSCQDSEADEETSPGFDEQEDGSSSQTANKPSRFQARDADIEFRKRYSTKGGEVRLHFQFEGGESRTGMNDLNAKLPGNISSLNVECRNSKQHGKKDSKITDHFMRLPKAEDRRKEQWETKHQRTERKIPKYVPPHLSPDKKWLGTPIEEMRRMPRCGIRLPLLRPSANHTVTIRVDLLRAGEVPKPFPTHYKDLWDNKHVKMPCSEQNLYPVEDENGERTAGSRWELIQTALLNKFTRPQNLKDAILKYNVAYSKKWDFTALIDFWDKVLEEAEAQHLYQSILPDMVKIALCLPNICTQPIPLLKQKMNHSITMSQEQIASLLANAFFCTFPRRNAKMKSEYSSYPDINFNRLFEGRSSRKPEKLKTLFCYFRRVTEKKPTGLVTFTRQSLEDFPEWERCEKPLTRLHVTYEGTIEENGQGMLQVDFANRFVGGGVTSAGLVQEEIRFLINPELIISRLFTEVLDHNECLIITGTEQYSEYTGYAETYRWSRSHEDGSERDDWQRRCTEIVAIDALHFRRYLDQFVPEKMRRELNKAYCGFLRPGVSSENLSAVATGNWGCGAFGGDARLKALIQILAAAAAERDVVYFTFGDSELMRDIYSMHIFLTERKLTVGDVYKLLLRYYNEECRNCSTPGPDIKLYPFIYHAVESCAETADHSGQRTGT
Another assay relates to PARG in HeLa cell line. As to the kind of experiment: PARG cell assay (PAR chain immunofluorescence after MMS). The conditions noted are these: HeLa cells, MMS treatment, read-out: PARG Cell IC50. It is filed as cell-based. In outline:
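HeLa cells were dosed with compound for 1 h, then given MMS at 50 μg/mL final for a further hour. Cells were methanol-fixed, permeabilised and stained overnight at 4° C with anti-PAR monoclonal antibody. Retained nuclear PAR chains, detected by indirect immunofluorescence, indicate PARG inhibition.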

With `CC1(NS(=O)(=O)c2ccc3[nH]c(=O)n(CCC#N)c(=O)c3c2)CC1` [Example 496, 3-(2-Cyanoethyl)-N-(1-methylcyclopropyl)-2,4-dioxo-1H-quinazoline-6-sulfonamide], the IC50 was determined as 2.67 µM on Human Full Length PARG and 5.49 µM in the assay with PARG in HeLa cell line.

As for `Cn1c(=O)n(CCC#N)c(=O)c2cc(S(=O)(=O)NC3(C)CC3)ccc21` [Example 497, 3-(2-Cyanoethyl)-1-methyl-N-(1-methylcyclopropyl)-2,4-dioxo-quinazoline-6-sulfonamide], the IC50 on Human Full Length PARG worked out at 2.71 µM; in the assay on PARG in HeLa cell line (Homo sapiens), 2.25 µM.

Turning to `Cc1nnc(Cn2c(=O)c3cc(S(=O)(=O)NC4(C)CC4)ccc3n(C)c2=O)s1` [Example 500, 1-Methyl-N-(1-methylcyclopropyl)-3-[(5-methyl-1,3,4-thiadiazol-2-yl)methyl]-2,4-dioxo-quinazoline-6-sulfonamide], the concentration for half-maximal inhibition (IC50) on Human Full Length PARG is 0.472 µM; in the assay on PARG in HeLa cell line, 0.35 µM.

For the molecule `Cc1ncc(Cn2c(=O)c3cc(S(=O)(=O)NC4(C)CC4)ccc3n(CC#N)c2=O)s1` [Example 502, 1-(Cyanomethyl)-N-(1-methylcyclopropyl)-3-[(2-methylthiazol-5-yl)methyl]-2,4-dioxo-quinazoline-6-sulfonamide], the IC50 on Human Full Length PARG worked out at 0.284 µM; in the assay with PARG in HeLa cell line (Homo sapiens), 0.171 µM.

Turning to `Cc1cc(Cn2c(=O)c3cc(S(=O)(=O)NC4(C)CC4)ccc3n(CC#N)c2=O)on1` [Example 503, 1-(Cyanomethyl)-N-(1-methylcyclopropyl)-3-[(3-methylisoxazol-5-yl)methyl]-2,4-dioxo-quinazoline-6-sulfonamide], the 50% inhibitory concentration (IC50) on Human Full Length PARG was found to be 0.604 µM; in the assay with PARG in HeLa cell line (Homo sapiens) it was 0.35 µM.

Regarding `Cc1oncc1Cn1c(=O)c2cc(S(=O)(=O)NC3(C)CC3)ccc2n(C)c1=O` [Example 506, 1-Methyl-N-(1-methylcyclopropyl)-3-[(5-methylisoxazol-4-yl)methyl]-2,4-dioxo-quinazoline-6-sulfonamide], the IC50 at Human Full Length PARG amounted to 0.77 µM; with PARG in HeLa cell line (Homo sapiens), 0.539 µM.

With `Cc1cc(Cn2c(=O)c3cc(S(=O)(=O)NC4(CF)CC4)ccc3n(C)c2=O)on1` [Example 514, N-[1-(Fluoromethyl)cyclopropyl]-1-methyl-3-[(3-methylisoxazol-5-yl)methyl]-2,4-dioxo-quinazoline-6-sulfonamide], the IC50 at Human Full Length PARG is 0.384 µM; in the assay with PARG in HeLa cell line (Homo sapiens), 0.178 µM.

On to `Cc1nnc(Cn2c(=O)c3cc(S(=O)(=O)NC4(CF)CC4)ccc3n(C)c2=O)s1` [Example 515, N-[1-(Fluoromethyl)cyclopropyl]-1-methyl-3-[(5-methyl-1,3,4-thiadiazol-2-yl)methyl]-2,4-dioxo-quinazoline-6-sulfonamide], for which the IC50 at Human Full Length PARG worked out at 0.579 µM; with PARG in HeLa cell line (Homo sapiens), 0.698 µM.

Regarding `Cc1cc(Cn2c(=O)[nH]c3ccc(S(=O)(=O)NC4(CF)CC4)cc3c2=O)on1` [Example 516, N-[1-(Fluoromethyl)cyclopropyl]-3-[(3-methylisoxazol-5-yl)methyl]-2,4-dioxo-1H-quinazoline-6-sulfonamide], the values for the half-maximal inhibitory concentration (IC50) at Human Full Length PARG and in the assay on PARG in HeLa cell line (Homo sapiens) were 0.443 µM and 0.807 µM, respectively.

`Cc1cc(Cn2c(=O)c3cc(S(=O)(=O)NC4(CF)CC4)ccc3n(CC3CC3)c2=O)on1` [Example 517, 1-(Cyclopropylmethyl)-N-[1-(fluoromethyl)cyclopropyl]-3-[(3-methylisoxazol-5-yl)methyl]-2,4-dioxo-quinazoline-6-sulfonamide]: the results for the IC50 at Human Full Length PARG and with PARG in HeLa cell line (Homo sapiens) were 0.056 µM and 0.041 µM, respectively.

For the molecule `Cc1cc(Cn2c(=O)c3cc(S(=O)(=O)NC4(CF)CC4)ccc3n(Cc3ccc(F)cc3)c2=O)on1` [Example 518, N-[1-(Fluoromethyl)cyclopropyl]-1-[(4-fluorophenyl)methyl]-3-[(3-methylisoxazol-5-yl)methyl]-2,4-dioxo-quinazoline-6-sulfonamide], the values for the IC50 on Human Full Length PARG and with PARG in HeLa cell line (Homo sapiens) were 0.117 µM and 0.095 µM, respectively.

For the molecule `Cc1cc(Cn2c(=O)c3cc(S(=O)(=O)NC4(CF)CC4)ccc3n(Cc3cc(C)nn3C)c2=O)on1` [Example 519, 1-[(2,5-Dimethylpyrazol-3-yl)methyl]-N-[1-(fluoromethyl)cyclopropyl]-3-[(3-methylisoxazol-5-yl)methyl]-2,4-dioxo-quinazoline-6-sulfonamide], the IC50 at Human Full Length PARG came out at 0.05 µM; in the assay with PARG in HeLa cell line (Homo sapiens), 0.312 µM.

Consider `CCn1c(=O)n(Cc2cc(C)no2)c(=O)c2cc(S(=O)(=O)NC3(CF)CC3)ccc21` [Example 520, 1-Ethyl-N-[1-(fluoromethyl)cyclopropyl]-3-[(3-methylisoxazol-5-yl)methyl]-2,4-dioxo-quinazoline-6-sulfonamide], for which the IC50 on Human Full Length PARG stood at 0.162 µM; in the assay on PARG in HeLa cell line, 0.092 µM.

For the molecule `Cc1cc(Cn2c(=O)c3cc(S(=O)(=O)NC4(CF)CC4)ccc3n(Cc3cc(C)no3)c2=O)on1` [Example 521, N-[1-(Fluoromethyl)cyclopropyl]-1,3-bis[(3-methylisoxazol-5-yl)methyl]-2,4-dioxo-quinazoline-6-sulfonamide], the results for the concentration for half-maximal inhibition (IC50) on Human Full Length PARG and in the assay on PARG in HeLa cell line (Homo sapiens) were 0.054 µM and 0.092 µM, respectively.

`Cc1cc(Cn2c(=O)c3cc(S(=O)(=O)NC4(CF)CC4)ccc3n(CC3COC3)c2=O)on1` [Example 522, N-[1-(Fluoromethyl)cyclopropyl]-3-[(3-methylisoxazol-5-yl)methyl]-1-(oxetan-3-ylmethyl)-2,4-dioxo-quinazoline-6-sulfonamide]: the IC50 worked out at 0.112 µM on Human Full Length PARG and 0.923 µM in the assay on PARG in HeLa cell line (Homo sapiens).

Turning to `Cc1cc(Cn2c(=O)c3cc(S(=O)(=O)NC4(CF)CC4)ccc3n(CC#N)c2=O)on1` [Example 523, 1-(Cyanomethyl)-N-[1-(fluoromethyl)cyclopropyl]-3-[(3-methylisoxazol-5-yl)methyl]-2,4-dioxo-quinazoline-6-sulfonamide], the figures for the IC50 at Human Full Length PARG and in the assay on PARG in HeLa cell line (Homo sapiens) were 0.411 µM and 0.571 µM, respectively.

Regarding `Cc1cc(Cn2c(=O)c3cc(S(=O)(=O)NC4(CF)CC4)ccc3n(CC3CCOC3)c2=O)on1` (stereo not shown) [Example 524, N-[1-(Fluoromethyl)cyclopropyl]-3-[(3-methylisoxazol-5-yl)methyl]-2,4-dioxo-1-(tetrahydrofuran-3-ylmethyl)quinazoline-6-sulfonamide], the values for the concentration for half-maximal inhibition (IC50) at Human Full Length PARG and in the assay with PARG in HeLa cell line (Homo sapiens) were 0.125 µM and 0.31 µM, respectively.

Turning to `COCCCn1c(=O)n(Cc2cc(C)no2)c(=O)c2cc(S(=O)(=O)NC3(CF)CC3)ccc21` [Example 525, N-[1-(Fluoromethyl)cyclopropyl]-1-(3-methoxypropyl)-3-[(3-methylisoxazol-5-yl)methyl]-2,4-dioxo-quinazoline-6-sulfonamide], the half-inhibitory concentration (IC50) came to 0.169 µM on Human Full Length PARG and 0.315 µM with PARG in HeLa cell line.

With `C#CCn1c(=O)n(Cc2cc(C)no2)c(=O)c2cc(S(=O)(=O)NC3(CF)CC3)ccc21` [Example 532, N-[1-(Fluoromethyl)cyclopropyl]-3-[(3-methylisoxazol-5-yl)methyl]-2,4-dioxo-1-prop-2-ynyl-quinazoline-6-sulfonamide], the 50% inhibitory concentration (IC50) was determined as 0.12 µM on Human Full Length PARG and 0.087 µM with PARG in HeLa cell line.

In the case of `Cc1ncc(Cn2c(=O)c3cc(S(=O)(=O)NC4(CF)CC4)ccc3n(C)c2=O)s1` [Example 533, N-[1-(Fluoromethyl)cyclopropyl]-1-methyl-3-[(2-methylthiazol-5-yl)methyl]-2,4-dioxo-quinazoline-6-sulfonamide], the IC50 on Human Full Length PARG was determined as 0.287 µM; with PARG in HeLa cell line (Homo sapiens) it was 0.282 µM.

Broadly, the IC50 is the point on the concentration scale where inhibition reaches its midpoint.
